# Source: patent US20260028354A1, “TETRAHYDRONAPHTHALENE DERIVATIVES AS ESTROGEN RECEPTOR DEGRADERS” (REGENT OF THE UNIVERSITY OF MICHIGAN, priority 2022, published 2026)
# Assay: Western blot analysis for "B" compounds
# Format: cell-based
# Details: read-out: Traditional Western Degradation Potency (DC50)
# Method in brief: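 Compound-treated cells lysed in RIPA buffer with protease inhibitors; equal protein (BCA) run on 10% SDS-PAGE, transferred to PVDF and probed with target antibodies. Band intensities quantified by densitometry and normalized to GAPDH.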
row,SMILES,DC50
1,"O=C1CCC(N2Cc3cc4c(cc3C2=O)CN(C2CCN(CC3CCN(c5ccc([C@@H]6c7ccc(O)cc7CC[C@@H]6c6ccccc6)cc5)CC3)CC2)C4=O)C(=O)N1 (stereo partly drawn) [Compound B303, 2-(2,6-dioxopiperidin-3-yl)-6-(1-((1-(4-((1R,2S)-6-hydroxy-2-phenyl-1,2,3,4-tetrahydronaphthalen-1-yl)phenyl)piperidin-4-yl)methyl)piperidin-4-yl)-2,3,6,7-tetrahydropyrrolo[3,4-f]isoindole-1,5-dione]",> 100 nM
2,"O=C1CCC(N2C(=O)c3cc4c(cc3C2=O)CN(Cc2cnc(N3CC(Oc5ccc([C@@H]6c7ccc(O)cc7CC[C@@H]6c6ccccc6)cc5)C3)nc2)C4)C(=O)N1 (stereo partly drawn) [Compound B92, 2-(2,6-dioxopiperidin-3-yl)-6-((2-(3-(4-((1R,2S)-6-hydroxy-2-phenyl-1,2,3,4-tetrahydronaphthalen-1-yl)phenoxy)azetidin-1-yl)pyrimidin-5-yl)methyl)-6,7-dihydropyrrolo[3,4-f]isoindole-1,3(2H,5H)-dione]",> 100 nM
3,"O=C1CCC(N2C(=O)c3cc4c(cc3C2=O)CN(CC2CCN(C(=O)C3(F)CCN(c5ccc([C@@H]6c7ccc(O)cc7CC[C@@H]6c6ccccc6)cc5)CC3)CC2)C4)C(=O)N1 (stereo partly drawn) [Compound B269, 2-(2,6-dioxopiperidin-3-yl)-6-((1-(4-fluoro-1-(4-((1R,2S)-6-hydroxy-2-phenyl-1,2,3,4-tetrahydronaphthalen-1-yl)phenyl)piperidine-4-carbonyl)piperidin-4-yl)methyl)-6,7-dihydropyrrolo[3,4-f]isoindole-1,3(2H,5H)-dione]",> 100 nM

# Other lines, results leading:
row,DC50,SMILES
1,> 100 nM,"O=C1CCC(N2C(=O)c3cc4c(cc3C2=O)CN(CC(=O)N2CCC3(CC2)CCN(C(=O)c2ccc([C@@H]5c6ccc(O)cc6CC[C@@H]5c5ccccc5)cc2)CC3)C4)C(=O)N1 (stereo partly drawn) [Compound B290, 2-(2,6-dioxopiperidin-3-yl)-6-(2-(9-(4-((1R,2S)-6-hydroxy-2-phenyl-1,2,3,4-tetrahydronaphthalen-1-yl)benzoyl)-3,9-diazaspiro[5.5]undecan-3-yl)-2-oxoethyl)-6,7-dihydropyrrolo[3,4-f]isoindole-1,3(2H,5H)-dione]"
2,> 100 nM,"O=C1CCC(N2C(=O)c3cc4c(cc3C2=O)CN(CC(=O)N2CCC3(CC2)CCN(c2cnc([C@H]5c6ccc(O)cc6CC[C@H]5c5ccccc5)cn2)CC3)C4)C(=O)N1 (mixture of isomers) [Compound B85, 2-(2,6-dioxopiperidin-3-yl)-6-(2-(9-(5-((1R,2R)-6-hydroxy-2-phenyl-1,2,3,4-tetrahydronaphthalen-1-yl)pyrazin-2-yl)-3,9-diazaspiro[5.5]undecan-3-yl)-2-oxoethyl)-6,7-dihydropyrrolo[3,4-f]isoindole-1,3(2H,5H)-dione]"
3,10 to 100 nM,"O=C1CCC(N2C(=O)c3cc4c(cc3C2=O)CN(CC(=O)N2CC3(C2)CN(c2ccc([C@@H]5c6ccc(O)cc6CC[C@@H]5c5ccc(F)cc5)cc2)C3)C4)C(=O)N1 (mixture of isomers) [Compound B188, 2-(2,6-dioxopipcridin-3-yl)-6-(2-(6-(4-((1R,2S)-2-(4-fluorophenyl)-6-hydroxy-1,2,3,4-tetrahydronaphthalen-1-yl)phenyl)-2,6-diazaspiro[3.3]heptan-2-yl)-2-oxoethyl)-6,7-dihydropyrrolo[3,4-f]isoindole-1,3(2H,5H)-dione]"
4,> 100 nM,"O=C1CCC(N2C(=O)c3cc4c(cc3C2=O)CN(C(=O)CN2CCC3(CC2)CCN(c2ccc([C@@H]5c6ccc(O)cc6CC[C@@H]5c5ccccc5)cc2F)C3)C4)C(=O)N1 (mixture of isomers) [Compound B33, 2-(2,6-dioxopiperidin-3-yl)-6-(2-(2-(2-fluoro-4-((1R,2S)-6-hydroxy-2-phenyl-1,2,3,4-tetrahydronaphthalen-1-yl)phenyl)-2,8-diazaspiro[4.5]decan-8-yl)acetyl)-6,7-dihydropyrrolo[3,4-f]isoindole-1,3(2H,5H)-dione]"
5,> 100 nM,"O=C1CCC(N2C(=O)c3cc4c(cc3C2=O)CN(C(=O)C2CCC(CN3CCN(c5ccc([C@@H]6c7ccc(O)cc7CC[C@@H]6c6ccccc6)cc5)CC3)CC2)C4)C(=O)N1 (stereo partly drawn) [Compound B114, 2-(2,6-dioxopiperidin-3-yl)-6-(4-((4-(4-((1R,2S)-6-hydroxy-2-phenyl-1,2,3,4-tetrahydronaphthalen-1-yl)phenyl)piperazin-1-yl)methyl)cyclohexane-1-carbonyl)-6,7-dihydropyrrolo[3,4-f]isoindole-1,3(2H,5H)-dione]"
6,10 to 100 nM,"O=C1CCC(N2C(=O)c3cc4c(cc3C2=O)CN(C(=O)[C@H]2CC[C@H](N3CC(Nc5ccc([C@@H]6c7ccc(O)cc7CC[C@@H]6c6ccccc6)cc5)C3)CC2)C4)C(=O)N1 (stereo partly drawn) [Compound B128, 2-(2,6-dioxopiperidin-3-yl)-6-((1S,4r)-4-(3-((4-((1R,2S)-6-hydroxy-2-phenyl-1,2,3,4-tetrahydronaphthalen-1-yl)phenyl)amino)azetidin-1-yl)cyclohexane-1-carbonyl)-6,7-dihydropyrrolo[3,4-f]isoindole-1,3(2H,5H)-dione]"
7,< 10 nM,"O=C1CCC(N2C(=O)c3cc4c(cc3C2=O)CN([C@H]2CC[C@@H](C(=O)N3CC(Nc5ccc([C@@H]6c7ccc(O)cc7CC[C@@H]6c6ccccc6)cc5)C3)CC2)C4)C(=O)N1 (stereo partly drawn) [Compound B125, 2-(2,6-dioxopiperidin-3-yl)-6-((1R,4s)-4-(3-((4-((1R,2S)-6-hydroxy-2-phenyl-1,2,3,4-tetrahydronaphthalen-1-yl)phenyl)amino)azetidine-1-carbonyl)cyclohexyl)-6,7-dihydropyrrolo[3,4-f]isoindole-1,3(2H,5H)-dione]"

# Assay: Cell growth assay (WST-8) for "B" compounds
# Format: cell-based
# Details: T47D; read-out: Cell growth Inhibition in T47D cell line IC50
# Experimental: Cell Growth Assay. The cells were seeded at 1500/well in 96 well plates overnight. One day after the seeding, they were treated with indicated doses of compounds respectively, 4 days after the compound treatment, 10% WST-8 reagent was added to the culture medium and incubate in a CO2 incubator at 37° C. for 2.5 hours. Before reading, the plate was mixed gently on an orbital shaker for one minute to ensure homogeneous distribution of color. The absorbance was measured of each sample using a microplate reader at a wavelength of 450 nm. The relative absorbance was calculated against the vehicle control from three individually repeats.
row,SMILES,IC50
1,"O=C1CC[C@H](N2Cc3c(ccc4c3OC[C@H]3CN(CC5COC6(CCN(c7ccc([C@@H]8c9ccc(O)cc9CC[C@@H]8c8ccccc8)cc7)CC6)C5)CCN43)C2=O)C(=O)N1 (stereo partly drawn) [Compound B226, (3S)-3-((5aR)-7-((8-(4-((1R,2S)-6-hydroxy-2-phenyl-1,2,3,4-tetrahydronaphthalen-1-yl)phenyl)-1-oxa-8-azaspiro[4.5]decan-3-yl)methyl)-1-oxo-1,3,5,5a,6,7,8,9-octahydro-2H-pyrazino[1′,2′: 4,5][1,4]oxazino[2,3-e]isoindol-2-yl)piperidine-2,6-dione]",< 1 nM
2,"O=C1CC[C@H](N2Cc3c(ccc4c3OC[C@H]3CN(C[C@H]5COC6(CCN(c7ccc([C@@H]8c9ccc(O)cc9CC[C@@H]8c8ccccc8)cc7)CC6)C5)CCN43)C2=O)C(=O)N1 [Compound B397, (S)-3-((R)-7-(((S)-8-(4-((1R,2S)-6-hydroxy-2-phenyl-1,2,3,4-tetrahydronaphthalen-1-yl)phenyl)-1-oxa-8-azaspiro[4.5]decan-3-yl)methyl)-1-oxo-1,3,5,5a,6,7,8,9-octahydro-2H-pyrazino[1′,2′:4,5][1,4]oxazino[2,3-e]isoindol-2-yl)piperidine-2,6-dione]",< 1 nM
3,"O=C1CCC(N2Cc3c(ccc4c3OC[C@@H]3CN(C(=O)CN5CCN(c6ccc([C@@H]7c8ccc(O)cc8CC[C@@H]7c7ccccc7)cc6)CC5)CCN43)C2=O)C(=O)N1 (stereo partly drawn) [Compound B244, 3-((S)-7-(2-(4-(4-((1R,2S)-6-hydroxy-2-phenyl-1,2,3,4-tetrahydronaphthalen-1-yl)phenyl)piperazin-1-yl)acetyl)-1-oxo-1,3,5,5a,6,7,8,9-octahydro-2H-pyrazino[1′,2′:4,5][1,4]oxazino[2,3-e]isoindol-2-yl)piperidine-2,6-dione]",< 1 nM
